Measurements as given in patent US4950659A, “16,17-acetalsubstituted androstane-17β-carboxylic acid esters prossessing high binding affinity to the glucocorticosteroid receptor” (Aktiebolaget Draco, priority 1985, dated 1990).

Biological target: T1, glucocorticoid receptor (Rattus norvegicus, UniProt P06536)
T1 construct: The thymus was removed and put into ice-cold saline; from tissue; host or cells: thymus of male Sprague-Dawley rats, 20,000×g supernatant of homogenate
T1 sequence (P06536 1-795): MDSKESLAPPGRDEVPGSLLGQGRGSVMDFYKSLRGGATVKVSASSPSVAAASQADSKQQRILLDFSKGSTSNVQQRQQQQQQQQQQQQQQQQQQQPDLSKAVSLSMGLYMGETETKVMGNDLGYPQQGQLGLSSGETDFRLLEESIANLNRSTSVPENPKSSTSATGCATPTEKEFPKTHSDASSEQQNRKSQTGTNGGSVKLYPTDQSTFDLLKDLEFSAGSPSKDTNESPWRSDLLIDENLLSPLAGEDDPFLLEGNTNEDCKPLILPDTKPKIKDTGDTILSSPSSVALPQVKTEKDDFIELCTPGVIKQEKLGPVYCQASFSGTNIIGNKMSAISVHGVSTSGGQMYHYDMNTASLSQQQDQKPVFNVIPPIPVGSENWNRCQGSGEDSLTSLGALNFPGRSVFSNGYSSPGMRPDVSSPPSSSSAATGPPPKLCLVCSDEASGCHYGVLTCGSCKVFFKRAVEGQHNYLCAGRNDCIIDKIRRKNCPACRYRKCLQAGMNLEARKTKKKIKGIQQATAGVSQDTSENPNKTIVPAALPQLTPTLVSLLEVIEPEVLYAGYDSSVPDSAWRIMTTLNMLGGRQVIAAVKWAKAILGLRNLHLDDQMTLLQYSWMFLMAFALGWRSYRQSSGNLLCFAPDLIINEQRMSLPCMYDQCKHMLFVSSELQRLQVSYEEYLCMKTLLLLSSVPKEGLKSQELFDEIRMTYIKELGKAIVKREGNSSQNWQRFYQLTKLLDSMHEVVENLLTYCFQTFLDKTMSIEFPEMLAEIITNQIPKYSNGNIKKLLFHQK
Assay: Relative binding affinity to the glucocorticoid receptor: competition with 3H-labelled dexamethasone in rat thymus 20,000×g supernatant
Conditions: curves compared at the 50% specific binding level of [3H]dexamethasone, referenced to budesonide, assigned RBA = 1, about 24 h at 0° C.
Description: All steroids according to the present invention are physiologically active compounds. The affinity of the novel androstane-17β-carboxylic acid esters to the glucocorticoid receptor has been used as a model for determination of the anti-inflammatory potency.
Male Sprague-Dawley rats, one to two months of age, were used throughout the investigation. The thymus was removed and put into ice-cold saline. The tissue was homogenized in a Potter Elvehjem homogenizer in 10 ml of a buffer containing 20 mM Tris, pH 7.4, 10% (w/v) glycerol, 1 mM EDTA, 20 mM NaMoO4, 10 mM mercaptoethanol. The homogenate was centrifuged for 15 min at 20,000×g. Portions of the 20,000×g supernatant (230 μl) were incubated for about 24 h at 0° C. with 100 μl phenylmethylsulphonylfluoride (an esterase inhibitor, final conc. 0.5 mM). 20 μl unlabelled competitor and 50 μl ^3 H-labelled dexamethasone (final conc. […]). Bound and free steroid were separated by incubating the mixture with 60 μl 2.5% (w/v) charcoal and 0.25% (w/v) dextran T70 suspension in 20 mM Tris, pH 7.4, 1 mM EDTA, and 20 mM NaMoO4 for 10 min at 0° C. Following a centrifugation at 500×g for 10 min, 230 μl or the supernatant was counted in 10 ml Insta-Gel in a Packard scintillation spectrophotometer. The supernatants were incubated with (a) [^3 H]dexamethasone alone, (b) [^3 H]dexamethasone plus 1000 fold excess of unlabelled dexamethasone and (c) [^3 H]dexamethasone plus 0.03-300 fold "excess" of competitor. The nonspecific binding was determined when 1000 fold excess of unlabelled dexamethasone was added to [^3 H]-labelled dexamethasone.
The radioactivity bound to the receptor in the presence of competitor divided by the radioactivity bound to the receptor in the absence of competitor multiplied by 100 gives the percentage specific binding of labelled dexamethasone. For each concentration of a competitor the percentage specifically bound radioactivity is plotted against the log of concentration of competitor. The curves are compared at the 50% specific binding level and referenced to budesonide, which is assigned a relative binding affinity (RBA) of 1.

Structure (SMILES)	relative binding affinities (RBA) to the glucocorticoid receptor
CCOC(=O)OC(C)(C)OC(=O)C12OC(C)(C)OC1CC1C3CC(F)C4=CC(=O)C=CC4(C)C3(F)C(O)CC12C (stereo not shown) [Example 38]	0.04
CCC[C@@H]1O[C@@H]2C[C@H]3[C@@H]4C[C@H](F)C5=CC(=O)C=C[C@]5(C)[C@@]4(F)[C@@H](O)C[C@]3(C)[C@]2(C(=O)OCOC(=O)OCC)O1 [Example 64]	0.05
CC(C)OC(=O)OC(C)OC(=O)C12OC(C)(C)OC1CC1C3CC(F)C4=CC(=O)C=CC4(C)C3(F)C(O)CC12C (single isomer, unassigned) [Example 27, 1'-isopropoxycarbonyloxyethyl 6α,9α-difluoro-11β-hydroxy-16α,17α-[(1-methylethylidene)bis(oxy)]androsta-1,4-diene-3-one-17β-carboxylate]	0.50
CCC[C@@H]1O[C@@H]2C[C@H]3[C@@H]4C[C@H](F)C5=CC(=O)C=C[C@]5(C)[C@@]4(F)[C@@H](O)C[C@]3(C)[C@]2(C(=O)OC(C)OC(=O)OCC)O1 (single isomer, unassigned) [Example 84]	1.03
CCC[C@@H]1O[C@@H]2C[C@H]3[C@@H]4CCC5=CC(=O)C=C[C@]5(C)[C@@]4(F)[C@@H](O)C[C@]3(C)[C@]2(C(=O)OC(C)OC(C)=O)O1 (single isomer, unassigned) [Example 55]	0.20
CCOC(=O)OC(C)OC(=O)C12OC(C)(C)OC1CC1C3CC(F)C4=CC(=O)C=CC4(C)C3(F)C(O)CC12C (single isomer, unassigned) [Example 4 epimer B, 1'-Ethoxycarbonyloxyethyl 6α,9α-difluoro-11β-hydroxy-16α,17α-[(1-methylethylidene)bis(oxy)]androsta-1,4-diene-3-one-17β-carboxylate]	0.30
CC(=O)OC(C)OC(=O)C12OC(C)(C)OC1CC1C3CC(F)C4=CC(=O)C=CC4(C)C3(F)C(O)CC12C (single isomer, unassigned) [Example 5 epimer B, 1'-Acetoxyethyl 6α,9α-difluoro-11β-hydroxy-16α,17α-[(1-methylethylidene)bis(oxy)]androsta-1,4-diene-3-one-17β-carboxylate]	0.17
CCC[C@@H]1O[C@@H]2C[C@H]3[C@@H]4CCC5=CC(=O)C=C[C@]5(C)[C@H]4[C@@H](O)C[C@]3(C)[C@]2(C(=O)OC(C)OC(=O)OCC)O1 (stereo partly shown) [Example 67]	0.04
CCC[C@@H]1O[C@@H]2C[C@H]3[C@@H]4CCC5=CC(=O)C=C[C@]5(C)[C@@]4(F)[C@@H](O)C[C@]3(C)[C@]2(C(=O)OC(C)OC(=O)OCC)O1 (single isomer, unassigned) [Example 69]	0.44
CCC[C@@H]1O[C@@H]2C[C@H]3[C@@H]4C[C@H](F)C5=CC(=O)C=C[C@]5(C)[C@@]4(F)[C@@H](O)C[C@]3(C)[C@]2(C(=O)OC(C)OC(=O)OC(C)C)O1 (single isomer, unassigned) [Example 87]	0.63
